Tests used:
[1] = test system: CHO-K1+EA-NLS/NRS+GR-PL cells; assay: EFC mitotic index assay, CHO-K1+EA-NLS/NRS+GR-PL cells, antibiotic selected pool (DX M19/GR pool); format: cell-based; conditions: for Avg luminescence readout / R1 luminescence readout / R3 luminescence readout / Ratio (Avg vs 0 conc): 24 hours, 30 min read
Method: (§1) In all experiments described, 20,000 cells/well were plated in a 96 well Corning clear bottom white plate in a total volume of 100 μL. The cells were treated for 24 hours with 5 μL of either the appropriate vehicle control or varying concentrations of the six compounds listed above. The next day, 100 μL of Tropix/ABI Gal screen cell lysis buffer/substrate mixture (24:1 ratio of component) was added to the cells/media and the plate was read on the Victor II luminescent plate reader at 30, 60 and 120 minutes after the lysis/substrate addition.
(§2) The initial test of the cell cycle arresting compounds was performed on a double stable cell line having both of the constructs expressing the EA-NLS/NRS and GR-PL. (PL is β-galactosidase enzyme donor fragment and EA is the enzyme acceptor fragment available from DiscoveRx, Fremont, CA.). The parental line, C2C12 is derived from mouse muscle cells. In the experiments in which EA-NLS/NRS and GR-PL are expressed in the C2C12 parental cell line, the constructs were generated by subcloning the human GR sequence into a MFG-based retroviral vector that had been molecularly altered in a lab at Stanford. An MFG vector is described in U.S. Pat. No. 6,544,771. The EA-NLS/NRS fragment was subcloned into a wzl-based retroviral vector again molecularly altered in a lab at Stanford. In the experiments performed using a CHO-K1 parental cell line background the EA-NLS/NRS was subcloned into the Kpn I and Xba I sites of pcDNA3.1 Hygro vector from Invitrogen (catalog #V870-20). The plasmid was introduced into the cells via FuGene6 (Roche) transfection reagent. Cells were selected in the presence of 250 μg/mL of Hygromycin and single cell clones isolated that expressed the EA-NLS/NRS. The human GR gene was cloned by PCR and subcloned into the Xho I and Bam HI sites of the DiscoveRx vector-pCMV-myc-PL (C3). The plasmid was introduced into the selected EA-NLS/NRS expressing clone isolated above by FuGene 6 transfection. Another round of screening in the presence of 300-500 μg/mL of G418 was used to select GR-PL transfected clones. Clonal selection was performed to finally identify the clone that was used in these studies. In the studies using the CHO-K1+cyto-EA and cJUN-PL, the same Invitrogen pcDNA3.1 Hygro vector was used to express EA. In this case, the EA fragment was subcloned into the Kpn I/Not I sites of pcDNA3.1 Hygro. The plasmid DNA was introduced as described above using FuGene6 reagent. Cells were selected in the presence of 250 μg/mL of hygromycin and clonal selection was performed. The c-Jun gene was generated by PCR using an existing template copy of the gene and then subcloned into the Xho I/Bam HI sites of pCMV-PL-myc (C3).
In the next experiment, an antibiotic selected pool population of CHO-K1 cells that express EA-NLS/NRS and GR-PL were tested with the same six set of cell cycle blocking compounds. […] FIGS. 2a and 2b show the immunofluorescence localization of EA and GR-PL in that the blue DAPI nuclear staining can be seen to be concentrated in the nucleus, while the green fluorescein stain on the antibody (from Abcam PLC) to the glucocorticoid receptor is seen in the cytoplasm. […] Again, six tables are presented one for each of the six drugs tested.
This only occurs with compounds that block the cells in mitosis, allowing EA and ProLabel to complement.

[2] = test system: CHO-K1+cyto-EA cells transfected with cJUN-PL; assay: EFC mitotic index assay, CHO-K1+cyto-EA cells transiently transfected with cJUN-PL; format: cell-based; conditions: for Avg luminescence readout / R1 luminescence readout / R3 luminescence readout / Ratio (Avg vs 0 conc): overnight
Method: as §2
To further test the concept of sequestering of one β-galactosidase enzyme fragment in the nucleus (in this case PL) while localizing the other component in the cytoplasm (in this case EA) the following experiment was carried out. […] The cyto-EA cells were transiently transfected with cJUN-PL plasmid DNA. Two days after the transfection, the cells were re-plated into a 96 well Corning white clear bottom multiwell plate at 20,000 cells/well. The cells were allowed to adhere overnight and the next day were treated with titrating concentrations of the six different cell cycle blocking compounds. The incubation was carried out overnight. The next day the media was removed from the cells and 100 μL of Tropix/ABI Gal screen cell lysis/substrate reagent was added to the cells.

[3] = test system: C2C12+EA-NLS/NRS+GR-PL cells; assay: EFC mitotic index assay, C2C12+EA-NLS/NRS+GR-PL cells (Stanford GR cells); format: cell-based, mouse; conditions: for Avg luminescence readout / R1 luminescence readout / R3 luminescence readout / Ratio (Avg vs 0 conc): 24 hours, 30 min read
Method: as §1, §2

## C[C@@]1(CO)[C@H](O)CC[C@@]2(C)[C@H]1CC[C@H]1C[C@@H]3C[C@@]12CC[C@]3(O)CO [Aphidicolin, aphidicolin]
[1]; 0.3 μM
  Avg luminescence readout: 5508
  R1 luminescence readout: 5478
  R3 luminescence readout: 5469
  Ratio (Avg vs 0 conc): 1
[1]; 1 μM
  Avg luminescence readout: 5604
  R1 luminescence readout: 5656
  R3 luminescence readout: 5491
  Ratio (Avg vs 0 conc): 1
[1]; 3.3 μM
  Avg luminescence readout: 4561
  R1 luminescence readout: 4392
  R3 luminescence readout: 4749
  Ratio (Avg vs 0 conc): 0
[1]; 10.0 μM
  Avg luminescence readout: 6941
  R1 luminescence readout: 7213
  R3 luminescence readout: 6651
  Ratio (Avg vs 0 conc): 1
[1]; overnight treatment
  increase in EFC activity (in words): did not cause an increase in EFC activity
[2]; 1.5 μg/mL
  Avg luminescence readout: 7545
  R1 luminescence readout: 7218
  R3 luminescence readout: 7576
  Ratio (Avg vs 0 conc): 0.9
[2]; 4.4 μg/mL
  Avg luminescence readout: 9193
  R1 luminescence readout: 9492
  R3 luminescence readout: 9245
  Ratio (Avg vs 0 conc): 1.1
[2]; 13.3 μg/mL
  Avg luminescence readout: 7027
  R1 luminescence readout: 6677
  R3 luminescence readout: 7784
  Ratio (Avg vs 0 conc): 0.8
[2]; 40.0 μg/mL
  Avg luminescence readout: 9131
  R1 luminescence readout: 8645
  R3 luminescence readout: 9818
  Ratio (Avg vs 0 conc): 1.0
[2]; overnight incubation
  increase in EFC activity (in words): negligible increase in EFC activity
[3]; 0.3 μM
  Avg luminescence readout: 3444
  R1 luminescence readout: 3081
  R3 luminescence readout: 3500
  Ratio (Avg vs 0 conc): 1
[3]; 1 μM
  Avg luminescence readout: 3307
  R1 luminescence readout: 3250
  R3 luminescence readout: 3388
  Ratio (Avg vs 0 conc): 1
[3]; 3.3 μM
  Avg luminescence readout: 3132
  R1 luminescence readout: 3171
  R3 luminescence readout: 3105
  Ratio (Avg vs 0 conc): 1
[3]; 10.0 μM
  Avg luminescence readout: 3413
  R1 luminescence readout: 2827
  R3 luminescence readout: 3765
  Ratio (Avg vs 0 conc): 1

## CC[C@]1(O)C[C@@H]2CN(CCc3c([nH]c4ccccc34)[C@@](C(=O)OC)(c3cc4c(cc3OC)N(C)[C@H]3[C@@](O)(C(=O)OC)[C@H](OC(C)=O)[C@]5(CC)C=CCN6CC[C@]43[C@@H]65)C2)C1 [Vinblastine]
[1]; 1.0 μg/mL
  Avg luminescence readout: 4335
  R1 luminescence readout: 4205
  R3 luminescence readout: 4277
  Ratio (Avg vs 0 conc): 1
[1]; 3.3 μg/mL
  Avg luminescence readout: 4345
  R1 luminescence readout: 4410
  R3 luminescence readout: 4436
  Ratio (Avg vs 0 conc): 1
[1]; 10.0 μg/mL
  Avg luminescence readout: 4078
  R1 luminescence readout: 3907
  R3 luminescence readout: 4201
  Ratio (Avg vs 0 conc): 1
[1]; 30.0 μg/mL
  Avg luminescence readout: 5919
  R1 luminescence readout: 5161
  R3 luminescence readout: 6583
  Ratio (Avg vs 0 conc): 1
[3]
  increase in EFC activity (in words): no increase in EFC activity
[3]; 1.0 μg/mL
  Avg luminescence readout: 10744
  R1 luminescence readout: 10417.0
  R3 luminescence readout: 11042
  Ratio (Avg vs 0 conc): 1
[3]; 3.3 μg/mL
  Avg luminescence readout: 12078
  R1 luminescence readout: 10894.0
  R3 luminescence readout: 13468
  Ratio (Avg vs 0 conc): 1
[3]; 10.0 μg/mL
  Avg luminescence readout: 10751
  R1 luminescence readout: 10269.0
  R3 luminescence readout: 11281
  Ratio (Avg vs 0 conc): 1
[3]; 30.0 μg/mL
  Avg luminescence readout: 10933
  R1 luminescence readout: 10692.0
  R3 luminescence readout: 11196
  Ratio (Avg vs 0 conc): 1

## CC(=O)O[C@H]1C(=O)[C@@]2(C)[C@H]([C@H](OC(=O)c3ccccc3)[C@]3(O)C[C@H](OC(=O)[C@H](O)[C@@H](NC(=O)c4ccccc4)c4ccccc4)C(C)=C1C3(C)C)[C@]1(OC(C)=O)CO[C@@H]1C[C@@H]2O [Taxol, paclitaxel]
[1]; 0.03 μM
  Avg luminescence readout: 7167
  R1 luminescence readout: 7314
  R3 luminescence readout: 6605
  Ratio (Avg vs 0 conc): 1
[1]; 0.1 μM
  Avg luminescence readout: 9961
  R1 luminescence readout: 10680
  R3 luminescence readout: 9258
  Ratio (Avg vs 0 conc): 2
[1]; 0.3 μM
  Avg luminescence readout: 9506
  R1 luminescence readout: 11709
  R3 luminescence readout: 7904
  Ratio (Avg vs 0 conc): 1
[1]; 1 μM
  Avg luminescence readout: 15972
  R1 luminescence readout: 17111
  R3 luminescence readout: 14344
  Ratio (Avg vs 0 conc): 2
[3]; 0.03 μM
  Avg luminescence readout: 3094
  R1 luminescence readout: 2624
  R3 luminescence readout: 3543
  Ratio (Avg vs 0 conc): 1
[3]; 0.1 μM
  Avg luminescence readout: 3684
  R1 luminescence readout: 2602
  R3 luminescence readout: 4340
  Ratio (Avg vs 0 conc): 1
[3]; 0.3 μM
  Avg luminescence readout: 3213
  R1 luminescence readout: 2638
  R3 luminescence readout: 3639
  Ratio (Avg vs 0 conc): 1
[3]; 1 μM
  Avg luminescence readout: 3692
  R1 luminescence readout: 3016
  R3 luminescence readout: 4104
  Ratio (Avg vs 0 conc): 1
